Source: the supplement of paper PMC8617591

Experiments:
[1] = tested on: Mycobacterium tuberculosis Erdman (autoluminescent); experiment: total FIC50 (Loewe) at 50% inhibition, three-drug combination (log2); higher = more antagonistic
Description: (§1)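 DiaMOND equipotent three-drug combination dose responses (10 doses, 1.5- or 2-fold spacing, centred on IC90) against autoluminescent M. tuberculosis Erdman in 8 in vitro models. Read-out is OD600, or luminescence for the intracellular and dormancy models, normalised to untreated wells. Hill-fit Einf, AUC25 and GRinf are potency metrics; FIC50 and FIC90 are total Loewe fractional inhibitory concentrations as log2 (negative = synergy).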

[2] = tested on: Mycobacterium tuberculosis Erdman (autoluminescent); experiment: total FIC90 (Loewe) at 90% inhibition, three-drug combination (log2); higher = more antagonistic
Description: as §1

[3] = tested on: Mycobacterium tuberculosis Erdman (autoluminescent); experiment: Einf, fitted maximum growth inhibition of three-drug combination (fraction); higher = stronger maximal inhibition
Description: as §1

[4] = tested on: Mycobacterium tuberculosis Erdman (autoluminescent); experiment: AUC25, normalised area under dose response up to IC25 (three-drug combination) (fraction (0-1)); higher = more potent at low dose
Description: as §1

[5] = tested on: Mycobacterium tuberculosis Erdman (autoluminescent); experiment: GRinf, maximum normalised growth rate inhibition (three-drug combination) (unitless (-1 to 1)); higher = less effect (negative = killing)
Description: as §1

NNC(=O)c1ccncc1 [isoniazid] + COc1c(N2C[C@@H]3CCCN[C@@H]3C2)c(F)cc2c(=O)c(C(=O)O)cn(C3CC3)c12 [moxifloxacin] + NC(=O)c1cnccn1 [pyrazinamide]
Conditions | AUC25, [4] | Einf, [3] | GRinf, [5] | total FIC50, [1] | total FIC90, [2]
in vitro model: acidic pH 5.7, time point: constant (~7 days, model-specific) | 0.0943 | 0.811 | -0.673 | -1.74 | –
in vitro model: acidic pH 5.7, time point: terminal (~4-5 doublings, model-specific) | 0.0851 | 0.971 | -0.382 | -2.52 | -1.33
in vitro model: intracellular J774, time point: constant = terminal | – | 0.997 | -0.252 | – | 0.681

Conditions | AUC25, [4] | Einf, [3] | GRinf, [5] | total FIC50, [1] | total FIC90, [2]
in vitro model: butyrate, time point: constant (~7 days, model-specific) | 0.0913 | 0.951 | -0.232 | -1.78 | -0.791
in vitro model: butyrate, time point: terminal (~4-5 doublings, model-specific) | 0.0549 | 0.975 | -0.195 | -1.66 | -1.72
in vitro model: cholesterol 0.05 mM, time point: constant (~7 days, model-specific) | 0.0921 | 0.697 | -0.188 | – | –
in vitro model: cholesterol 0.05 mM, time point: terminal (~4-5 doublings, model-specific) | 0.0805 | 0.887 | -0.177 | -0.327 | –
in vitro model: cholesterol-high 0.2 mM, time point: constant (~7 days, model-specific) | 0.0786 | 0.911 | -0.235 | 0.416 | –
in vitro model: cholesterol-high 0.2 mM, time point: terminal (~4-5 doublings, model-specific) | 0.0668 | 0.981 | -0.527 | 0.819 | 0.533
in vitro model: dormancy (butyrate + nitrate, low O2), time point: constant (~7 days, model-specific) | 0.0724 | 0.877 | 0.245 | -2.06 | -2.38
in vitro model: dormancy (butyrate + nitrate, low O2), time point: terminal (~4-5 doublings, model-specific) | 0.0689 | 0.984 | -0.161 | -1.92 | -1.58
in vitro model: standard 7H9 glycerol, time point: constant = terminal | 0.0639 | 0.983 | -0.168 | – | –
in vitro model: valerate, time point: constant (~7 days, model-specific) | 0.117 | 0.877 | 0.0249 | -1.97 | –
in vitro model: valerate, time point: terminal (~4-5 doublings, model-specific) | 0.0825 | 0.931 | 0.0159 | -1.91 | -1.83

NNC(=O)c1ccncc1 [isoniazid] + COc1c(N2C[C@@H]3CCCN[C@@H]3C2)c(F)cc2c(=O)c(C(=O)O)cn(C3CC3)c12 [moxifloxacin] + O=[N+]([O-])c1cn2c(n1)OC[C@@H](OCc1ccc(OC(F)(F)F)cc1)C2 [pretomanid]
Conditions | AUC25, [4] | Einf, [3] | GRinf, [5] | total FIC50, [1] | total FIC90, [2]
in vitro model: acidic pH 5.7, time point: constant (~7 days, model-specific) | 0.105 | 0.752 | -0.684 | 4.5 | –
in vitro model: acidic pH 5.7, time point: terminal (~4-5 doublings, model-specific) | 0.0907 | 0.959 | -0.532 | 4.46 | 4.49
in vitro model: intracellular J774, time point: constant = terminal | – | 0.994 | -0.481 | – | 0.579

Conditions | AUC25, [4] | Einf, [3] | GRinf, [5] | total FIC50, [1] | total FIC90, [2]
in vitro model: butyrate, time point: constant (~7 days, model-specific) | 0.0536 | 0.929 | -0.0807 | 2.83 | 2.02
in vitro model: butyrate, time point: terminal (~4-5 doublings, model-specific) | 0.0441 | 0.974 | -0.0869 | 2.53 | 2.38
in vitro model: cholesterol 0.05 mM, time point: constant (~7 days, model-specific) | 0.105 | 0.746 | -0.26 | 1.75 | –
in vitro model: cholesterol 0.05 mM, time point: terminal (~4-5 doublings, model-specific) | 0.0994 | 0.957 | -0.35 | 8.24 | 1.68
in vitro model: cholesterol-high 0.2 mM, time point: constant (~7 days, model-specific) | 0.0779 | 0.892 | -0.144 | 0.366 | –
in vitro model: cholesterol-high 0.2 mM, time point: terminal (~4-5 doublings, model-specific) | 0.0578 | 0.977 | -0.646 | 0.407 | 0.342
in vitro model: dormancy (butyrate + nitrate, low O2), time point: constant (~7 days, model-specific) | 0.0796 | 0.873 | 0.251 | 2.42 | 2.29
in vitro model: dormancy (butyrate + nitrate, low O2), time point: terminal (~4-5 doublings, model-specific) | 0.0682 | 0.986 | -0.111 | 2.34 | 2.6
in vitro model: standard 7H9 glycerol, time point: constant = terminal | 0.0818 | 0.979 | -0.202 | 1.14 | 0.349
in vitro model: valerate, time point: constant (~7 days, model-specific) | 0.107 | 0.898 | -0.0314 | 2.35 | –
in vitro model: valerate, time point: terminal (~4-5 doublings, model-specific) | 0.071 | 0.948 | -0.0412 | 2.43 | 2.4

NNC(=O)c1ccncc1 [isoniazid] + NC(=O)c1cnccn1 [pyrazinamide] + CO[C@H]1/C=C/O[C@@]2(C)Oc3c(C)c(O)c4c(O)c(c(/C=N/N5CCN(C6CCCC6)CC5)c(O)c4c3C2=O)NC(=O)/C(C)=C\C=C\[C@H](C)[C@H](O)[C@@H](C)[C@@H](O)[C@@H](C)[C@H](OC(C)=O)[C@@H]1C [rifapentine]
Conditions | AUC25, [4] | Einf, [3] | GRinf, [5] | total FIC50, [1] | total FIC90, [2]
in vitro model: acidic pH 5.7, time point: constant (~7 days, model-specific) | 0.096 | 0.925 | -0.35 | -3.55 | –
in vitro model: acidic pH 5.7, time point: terminal (~4-5 doublings, model-specific) | 0.0425 | 0.985 | -0.234 | -2.67 | -3.81
in vitro model: intracellular J774, time point: constant = terminal | – | 0.987 | -0.309 | – | 0.243

Conditions | AUC25, [4] | Einf, [3] | GRinf, [5] | total FIC50, [1] | total FIC90, [2]
in vitro model: butyrate, time point: constant (~7 days, model-specific) | 0.0899 | 0.924 | -0.00381 | -1.95 | 0.6
in vitro model: butyrate, time point: terminal (~4-5 doublings, model-specific) | 0.0698 | 0.969 | 0.0193 | -1.85 | -1.91
in vitro model: cholesterol 0.05 mM, time point: constant (~7 days, model-specific) | 0.108 | 0.706 | -0.183 | – | –
in vitro model: cholesterol 0.05 mM, time point: terminal (~4-5 doublings, model-specific) | 0.0828 | 0.893 | -0.166 | -0.19 | –
in vitro model: cholesterol-high 0.2 mM, time point: constant (~7 days, model-specific) | 0.0744 | 0.905 | -0.222 | 0.738 | –
in vitro model: cholesterol-high 0.2 mM, time point: terminal (~4-5 doublings, model-specific) | 0.0802 | 0.997 | -0.658 | 1.17 | 1.11
in vitro model: dormancy (butyrate + nitrate, low O2), time point: constant (~7 days, model-specific) | 0.0611 | 0.883 | 0.232 | -2.31 | -2.4
in vitro model: dormancy (butyrate + nitrate, low O2), time point: terminal (~4-5 doublings, model-specific) | 0.0351 | 0.973 | -0.0606 | -2.22 | -2.43
in vitro model: standard 7H9 glycerol, time point: constant = terminal | 0.066 | 0.915 | 0.0607 | -5.95 | –
in vitro model: valerate, time point: constant (~7 days, model-specific) | 0.118 | 0.878 | -0.183 | -1.89 | –
in vitro model: valerate, time point: terminal (~4-5 doublings, model-specific) | 0.0446 | 0.949 | -0.0194 | -1.1 | -0.889
